The values that follow are results of earlier work, collected in PMC4546427, “Stereoselective Regulation of P-gp Activity by Clausenamide Enantiomers in Caco-2, KB/KBv and Brain Microvessel Endothelial Cells” (PLoS ONE, 2015).

The test system of this data set is P-gp ATPase. Also noted: method as in PMID 9300798. The following applies: cited from earlier work.

Like-named read-outs stand apart in the source and are kept apart here.

As for `CC(=O)[C@H]1CC[C@H]2[C@@H]3CCC4=CC(=O)CC[C@]4(C)[C@H]3CC[C@]12C` [progesterone], the “Effect on P-gp ATPase activity” value is “inhibited” (concentrations above 25 μmol/L) and “stimulated” (low concentration 6.3 μmol/L).
